From patent publication US9382261B2, “Substituted quinazolinones as HCV inhibitors” (Janssen R&D Ireland, priority 2011, dated 2016) come the findings set out here.

Data set [1] relates to HCV replicon type 1b in Huh-Luc cells. Kind of data set: HCV replicon assay, stable transfection (Huh-7 luc/neo, luciferase readout). The following applies: Hepatitis C virus, Huh-7, 72 h, stably transfected Huh-Luc cells, genotype 1b, three days incubation, average if tested more than once, read-out: HCV-REP-HUH7LUC_EC50. It is filed as cell-based, HCV type 1b. From the text: The compounds of formula (I) were examined for inhibitory activity in the HCV replicon. This cellular assay is based on a bicistronic expression construct, as described by Lohmann et al. (Science (1999) 285: 110-113; Journal of Virology (2003) 77: 3007-3019) with modifications described by Krieger et al. (Journal of Virology (2001) 75: 4614-4624), and Lohmann et al. (Journal of Virology (2003) 77: 3007-3019) for genotype 1b and by Yi et al. (Journal of Virology (2004) 78: 7904-7915) for genotype 1a, in a multi-target screening strategy.
The method was as follows. The assay utilized the stably transfected cell line Huh-7 luc/neo (hereafter referred to as Huh-Luc). This cell line harbors an RNA encoding a bicistronic expression construct comprising the wild type NS3-NS5B regions of HCV type 1b translated from an Internal Ribosome Entry Site (IRES) from encephalomyocarditis virus (EMCV), preceded by a reporter portion (FfL-luciferase), and a selectable marker portion (neoR, neomycine phosphotransferase). The construct is flanked by 5′ and 3′ NTRs (non-translated regions) from HCV type 1b. Continued culture of the replicon cells in the presence of G418 (neoR) is dependent on the replication of the HCV RNA. The stably transfected replicon cells that replicate HCV RNA autonomously and to high levels, encoding inter alia luciferase, were used for screening the antiviral compounds.
The replicon cells were plated in 384 well plates in the presence of the test and control compounds which were added in various concentrations. Following an incubation of three days, HCV replication was measured by assaying luciferase activity (using standard luciferase assay substrates and reagents and a Perkin Elmer ViewLux™ ultraHTS microplate imager). Replicon cells in the control cultures have high luciferase expression in the absence of any inhibitor. The inhibitory activity of the compound was monitored on the Huh-Luc cells, enabling a dose-response curve for each test compound. EC50 values were then calculated, which represent the amount of compound required to decrease the level of detected luciferase activity by 50%, or more specifically, to reduce the ability of the genetically linked HCV replicon RNA to replicate.
Where a compound of formula (I) was tested more than once in the replicon assay, the average of all test results is given in this Table 1.

The test system of data set [2] is HCV subgenomic replicon genotype 1a H77. Kind of data set: HCV replicon assay, transient transfection, genotype 1a H77 (Huh-7 lunet, luciferase readout). It is filed as cell-based, HCV genotype 1a H77. The following applies: Hepatitis C virus, 48 h, Huh-7 lunet transiently transfected, genotype 1a H77, two days incubation. The source says:
(§1) In a transient set-up, a Huh-7 lunet hepatoma cell line was transiently transfected with an autonomously replicating RNA encoding a bi-cistronic expression construct. This construct comprises a firefly luciferase reporter gene preceding the NS3-NS5B subgenomic region of HCV (genotype 1a H77 or 1b Con1). Translation of the HCV subgenomic region is mediated by an internal ribosome entry site of encephalomyocarditis virus. The construct is furthermore flanked by 5′ and 3′ untranslated regions of HCV (genotype 1a H77 or 1b Con1, respectively), which allow for replication of the RNA.
(§2) Cells were plated in 384 well plates in the presence of test and control compounds, which were added in various concentrations. Following an incubation of two days, replication of the HCV subgenomic replicon RNA was measured by assaying luciferase activity (using standard luciferase assay substrates and reagents and a Perkin Elmer ViewLux™ ultraHTS microplate imager). HCV subgenomic replicon containing cells in the control cultures have high luciferase expression in the absence of any inhibitor. The inhibitory activity of the compound was monitored, enabling a dose-response curve for each test compound. EC50 values were then calculated, which represent the amount of compound required to decrease the level of detected luciferase activity by 50%, or more specifically, to reduce the ability of the genetically linked HCV subgenomic RNA to replicate.
(In general: Replicon systems follow genome replication, usually without infectious particles.)

Data set [3] is described as follows: Counterscreen Huh7-CMV-Luc. It is filed as cell-based. The following applies: human; counterscreen cell line Huh7-CMV-Luc. From the text: (§3) The in vitro antiviral activity against HCV of the compounds of formula I can be tested in a cellular HCV replicon system based on Lohmann et al. (1999) Science 285:110-113, with the further modifications described by Krieger et al. (2001) Journal of Virology 75: 4614-4624 and Lohmann et al. (2003) Journal of Virology 77: 3007-3019 for genotype 1b and by Yi et al. (2004) Journal of Virology 78: 7904-7915 for genotype 1a (incorporated herein by reference), which is further exemplified in the examples section. This model, while not a complete infection model for HCV, is widely accepted as the most robust and efficient model of autonomous HCV RNA replication currently available. It will be appreciated that it is important to distinguish between compounds that specifically interfere with HCV functions from those that exert cytotoxic or cytostatic effects in the HCV replicon model, and as a consequence cause a decrease in HCV RNA or linked reporter enzyme concentration. Assays are known in the field for the evaluation of cellular cytotoxicity based for example on the activity of mitochondrial enzymes using fluorogenic redox dyes such as resazurin. Furthermore, cellular counter screens exist for the evaluation of non-selective inhibition of linked reporter gene activity, such as firefly luciferase. Appropriate cell types can be equipped by stable transfection with a luciferase reporter gene whose expression is dependent on a constitutively active gene promoter, and such cells can be used as a counter-screen to eliminate non-selective inhibitors.
(§4) Counterscreen cell lines included a Huh-7 hepatoma cell line containing a human cytomegalovirus major immediate-early promoter-Luc construct (Huh7-CMV-Luc) and an MT4 T-cell line containing a long terminal repeat-Luc reporter (MT4-LTR-Luc).
(Counterscreens check selectivity or assay interference.)

Data set [4] in a line: Counterscreen MT4-LTR-Luc. In kind it is cell-based. The conditions noted are these: human; counterscreen cell line MT4-LTR-Luc.
Text: as §3, §4

Data set [5] concerns HCV subgenomic replicon genotype 1b Con1. Nature of the data set: HCV replicon assay, transient transfection, genotype 1b Con1 (Huh-7 lunet, luciferase readout). It is filed as cell-based, HCV genotype 1b Con1. The conditions noted are these: Hepatitis C virus, 48 h, Huh-7 lunet transiently transfected, genotype 1b Con1, two days incubation.
Text: as §1, §2

A value given as a limit tells only on which side of the number the result lay.

As to `COC(=O)N[C@H](C(=O)N1CC2(C[C@H]1c1nc3cc(-c4ccc5cc(-c6cnc([C@@H]7C[C@H]8C[C@H]8N7C(=O)[C@@H](NC(=O)OC)C(C)C)[nH]6)ccc5c4)ccc3c(=O)[nH]1)OCCCO2)C(C)C` [Compound 1], the EC50 in data set [1] came out at 0.026 nM; in data set [2], 0.79 nM; in data set [5], 0.029 nM. The CC50 in data set [3] and in data set [4] was over 980 nM throughout.

For `COC(=O)N[C@H](C(=O)N1CC2(C[C@H]1c1ncc(-c3ccc4cc(-c5ccc6c(=O)[nH]c([C@@H]7CC8(CN7C(=O)[C@@H](NC(=O)OC)C(C)C)OCCO8)nc6c5)ccc4c3)[nH]1)OCCO2)C(C)C` [Compound 2], the EC50 in data set [1] turned out to be 0.018 nM; in data set [2], 1.4 nM; in data set [5], 0.033 nM. The CC50 in data set [3] and in data set [4] was over 980 nM each time.

`COC(=O)N[C@H](C(=O)N1[C@@H]2C[C@@H]2C[C@H]1c1ncc(-c2ccc3cc(-c4ccc5c(=O)[nH]c([C@@H]6C[C@H]7C[C@H]7N6C(=O)[C@@H](NC(=O)OC)C(C)C)nc5c4)ccc3c2)[nH]1)C(C)C` [Compound 3]: the EC50 amounted to 0.017 nM in data set [1], 0.16 nM in data set [2] and 0.012 nM in data set [5]. The CC50 in data set [3] and in data set [4] was over 980 nM each time.

On to `COC(=O)N[C@H](C(=O)N1CC2(C[C@H]1c1ncc(-c3ccc4cc(-c5ccc6c(=O)[nH]c([C@@H]7C[C@H]8C[C@H]8N7C(=O)[C@@H](NC(=O)OC)C(C)C)nc6c5)ccc4c3)[nH]1)OCCO2)C(C)C` [Compound 4], for which the EC50 in data set [1] came out at 0.008 nM; in data set [2], 0.103 nM; in data set [5], 0.013 nM. Moreover, the CC50 in data set [3] and in data set [4] was over 980 nM throughout.

With `COC(=O)N[C@H](C(=O)N1CC2(C[C@H]1c1ncc(-c3ccc4cc(-c5ccc6c(=O)[nH]c([C@@H]7CCCN7C(=O)[C@@H](NC(=O)OC)C(C)C)nc6c5)ccc4c3)[nH]1)OCCO2)C(C)C` [Compound 5], the figures for the EC50 in data set [1], in data set [2] and in data set [5] were 0.025 nM, 0.677 nM and 0.025 nM, respectively. Further, the CC50 in data set [3] and in data set [4] was over 980 nM throughout.

For `COC(=O)N[C@H](C(=O)N1[C@@H]2C[C@@H]2C[C@H]1c1ncc(-c2ccc3cc(-c4ccc5c(=O)[nH]c([C@@H]6C[C@@H]7CCCC[C@@H]7N6C(=O)[C@@H](NC(=O)OC)C(C)C)nc5c4)ccc3c2)[nH]1)C(C)C` [Compound 7], the EC50 in data set [1] was determined as 0.008 nM; in data set [2], 0.546 nM; in data set [5] it was 0.006 nM. The CC50 in data set [3] and in data set [4] was over 980 nM each time.

Consider `COC(=O)N[C@H](C(=O)N1CC2(C[C@H]1c1ncc(-c3ccc4cc(-c5ccc6c(=O)[nH]c([C@@H]7C[C@@H]8CCCC[C@@H]8N7C(=O)[C@@H](NC(=O)OC)C(C)C)nc6c5)ccc4c3)[nH]1)OCCO2)C(C)C` [Compound 9], for which the EC50 in data set [1] amounted to 0.008 nM; in data set [2], 0.216 nM; in data set [5], 0.006 nM. The CC50 in data set [3] and in data set [4] was over 980 nM in each case.

Take `COC(=O)N[C@H](C(=O)N1CCC[C@H]1c1nc2cc(-c3ccc4cc(-c5cnc([C@@H]6C[C@H]7C[C@H]7N6C(=O)[C@@H](NC(=O)OC)C(C)C)[nH]5)ccc4c3)ccc2c(=O)[nH]1)C(C)C` [Compound 10]: the EC50 in data set [1] was 0.006 nM; in data set [2], 0.341 nM; in data set [5], 0.005 nM. Moreover, the CC50 in data set [3] and in data set [4] was over 980 nM each time.

Regarding `COC(=O)N[C@H](C(=O)N1[C@@H]2CC[C@@H](C2)[C@H]1c1nc2cc(-c3ccc4cc(-c5cnc([C@@H]6C[C@H]7C[C@H]7N6C(=O)[C@@H](NC(=O)OC)C(C)C)[nH]5)ccc4c3)ccc2c(=O)[nH]1)C(C)C` [Compound 12], the EC50 was determined as 0.27 nM in data set [1], 12.5 nM in data set [2] and 0.109 nM in data set [5]. Further, the CC50 in data set [3] and in data set [4] was over 980 nM throughout.

For `COC(=O)N[C@H](C(=O)N1CC2(CC2)C[C@H]1c1ncc(-c2ccc3cc(-c4ccc5c(=O)[nH]c([C@@H]6C[C@@H]7CCCC[C@@H]7N6C(=O)[C@@H](NC(=O)OC)C(C)C)nc5c4)ccc3c2)[nH]1)C(C)C` [Compound 13], the EC50 in data set [1] was 0.006 nM; in data set [2], 0.36 nM; in data set [5], 0.009 nM. The CC50 in data set [3] and in data set [4] was over 980 nM each time.

In the case of `COC(=O)N[C@H](C(=O)N1[C@H](c2ncc(-c3ccc4cc(-c5ccc6c(=O)[nH]c([C@@H]7C[C@@H]8CCCC[C@@H]8N7C(=O)[C@@H](NC(=O)OC)C(C)C)nc6c5)ccc4c3)[nH]2)C[C@@H]2CCCC[C@@H]21)C(C)C` [Compound 14], the EC50 in data set [1] stood at 0.022 nM; in data set [2] it was 0.136 nM; in data set [5], 0.021 nM. The CC50 in data set [3] and in data set [4] was over 980 nM throughout.

Consider `COC(=O)N[C@H](C(=O)N1CCC[C@H]1c1ncc(-c2ccc3cc(-c4ccc5c(=O)[nH]c([C@@H]6C[C@@H]7CCCC[C@@H]7N6C(=O)[C@@H](NC(=O)OC)C(C)C)nc5c4)ccc3c2)[nH]1)C(C)C` [Compound 15], for which the EC50 is 0.006 nM in data set [1], 0.496 nM in data set [2] and 0.007 nM in data set [5]. For the same compound, the CC50 in data set [3] and in data set [4] was over 980 nM each time.
